Experimental data published in US20190055231A1, “BACE1 INHIBITORS” (Hoffmann-La Roche Inc., priority 2016, published 2019).

Legend:
hERG channel = hERG channel (Homo sapiens, UniProt Q12809); experiment: hERG patch liner assay; format: cell-based
Excerpt: The methods to determine the hERG IC20 patch liner values were described in Toward a New Gold Standard for Early Safety: Automated Temperature-Controlled hERG Test on the PatchLiner. Polonchuk L., Front Pharmacol. 2012 Jan. 26; 3:3. (doi: 10.3389/fphar.2012.00003. eCollection 2012.) PMID:22303293

Mouse P-gp = Mouse P-gp (Mus musculus, UniProt P21447); experiment: P-gp transport assay (mouse); format: in vitro ADME; conditions: efflux ratio
Excerpt: (§1) P-Gp Transport Assay (Human and Mouse) (P-Gp Assay)
(§2) In the assay of the P-gp efflux ratio ER as described hereinabove, a compound with ER<2.5 is regarded most suitable. In addition, compounds with low hERG channel binding are suitable as well.

[1] = system: Aβ40 in brain of wild-type mice; experiment: Mouse acute in vivo model (inhibition of Aβ40 in brain of wild-type mice); conditions: 4 h post dose
Description: Mouse Acute In Vivo Model (Inhibition of Aβ40 in Brain of Wild-Type Mice)
Single Dose Efficacy in Mice
The mouse single dose efficacy was measured in brain homogenate from C57Bl/6J wildtype mice after DEA extraction as described in H. Hilpert et al., J. Med. Chem. 2013, 56, 3980-3995 (dx.doi.org/10.1021/jm400225m).
(§3) Aβ 40 concentration was determined after solid phase extraction as described above and following a modified protocol from Perkin-Elmer with a commercially available antibody against the N-terminal part of rat Aβ (252Q6, Invitrogen cat. No. AMB0062) and an in-house C-terminal specific anti-Aβ40 antibody (BAP-24, Brockhaus M. et al., J. Neuroreport, 1998, 9:1481-1486) bound to acceptor beads (PerkinElmer, Cat. 6772002). 20 μl analyte per well (reconstituted extracts or standard) were loaded to a White Optiplate-96 (Perkin-Elmer, Cat#6005290). Then, a mixture of biotinylated BAP24 antibody (1:2000 diluted at approximately 1 nM final concentration) and antibody 252Q6 bound to AlphaLISA acceptor beads (Perkin-Elmer cat. No. 6772002 (1:100 diluted, 10 ug/mL final concentration) in 1× AlphaLISA buffer (Perkin-Elmer, AL000F) was added. After 1 hour room temperature incubation in the dark, 20 uL of a streptavidin coated donor beads dilution (40 μg/mL) were added and incubated for 30 minutes in the dark. Light emission at 615 nm was recorded using an EnVision AlphaScreen Reader (Perkin-Elmer). Levels of Aβ40 were calculated as percentage of the baseline samples from non-treated animals.
Aβ40 lowering was determined after oral administration in wild-type mice (C57Bl/6J mice, n=3-4) 4 h post dosing. Wild-type mice were used as they have a normal physiological level of APP expression and are thus expected to provide a better physiological model for Aβ-peptide production than APP-transgenic organisms. In vivo efficacy is a key factor for appropriate drug candidates, being more relevant than in vitro activities.

CSF Aβ40 = experiment: Rat single dose study, inhibition of CSF Aβ40 in Wistar rats; format: in vivo; conditions: rat CSF Aβ40, 1 mg/kg, 4 h post dose
Description: Rat Single Dose PK Study (Inhibition of CSF Aβ40 in Wistar Rats)
The rat single dose PK study was described in H. Hilpert et al., J. Med. Chem. 2013, 56, 3980-3995 (dx.doi.org/10.1021/jm400225m) with slight modifications.
as §3, with “determined without” for “determined after”, “extraction” for “extraction as described above and”, “20 μL” for “20 uL”, “of Aβ 40” for “of Aβ40”

Human P-gp = Human P-gp (Homo sapiens, UniProt P08183); experiment: P-gp transport assay (human); format: in vitro ADME; conditions: efflux ratio
Excerpt: as §1, §2

BACE2 = biological target: T1, BACE2 (Homo sapiens, UniProt Q9Y5Z0); experiment: BACE2 cell-free assay (BACE2 enzyme assay); format: biochemical; conditions: for BACE2/BACE1 IC50 ratio: BACE2 IC50 divided by BACE1 IC50, cell free assays
T1 sequence (Q9Y5Z0 63-518): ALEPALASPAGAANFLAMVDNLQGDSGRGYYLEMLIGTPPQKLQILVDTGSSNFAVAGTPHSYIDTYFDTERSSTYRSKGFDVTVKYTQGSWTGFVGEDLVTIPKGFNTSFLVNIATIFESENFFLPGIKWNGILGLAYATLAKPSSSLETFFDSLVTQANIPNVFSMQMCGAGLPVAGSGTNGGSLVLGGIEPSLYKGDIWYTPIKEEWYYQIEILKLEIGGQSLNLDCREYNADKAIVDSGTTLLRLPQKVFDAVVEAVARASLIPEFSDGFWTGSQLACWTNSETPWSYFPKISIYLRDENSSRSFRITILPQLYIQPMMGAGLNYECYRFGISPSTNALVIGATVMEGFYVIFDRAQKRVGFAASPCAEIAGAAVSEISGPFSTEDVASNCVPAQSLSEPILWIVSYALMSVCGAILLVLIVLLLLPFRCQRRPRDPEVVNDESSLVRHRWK
Excerpt: BACE2 Cell-Free Assay (BACE2 Enzyme Assay)
Selectivity versus related targets is important in terms of safety of a drug candidate. BACE2 is a close homolog of BACE1. BACE2 was recently reported to play a crucial role in pigmentation of the skin by processing pigment cell-specific melanocyte protein (PMEL). (Proc Natl Acad Sci USA. 2013 Jun. 25; 110(26):10658-63. doi: 10.1073/pnas.1220748110. Epub 2013 Jun. 10). It is believed that PMEL contributes in melanogenesis. Therefore, selectivity versus BACE2 is advantageous when it comes to pigmentation of the skin. The selectivity ratio of BACE2/BACE1 IC50 was calculated by dividing the BACE2 IC50 value by the BACE1 IC50 value determined each in the cell free assay. […] This implies a 3-fold improvement of example 1 compared to comparators 4 and 5.

Sequence of hERG channel (Q12809 whole entry): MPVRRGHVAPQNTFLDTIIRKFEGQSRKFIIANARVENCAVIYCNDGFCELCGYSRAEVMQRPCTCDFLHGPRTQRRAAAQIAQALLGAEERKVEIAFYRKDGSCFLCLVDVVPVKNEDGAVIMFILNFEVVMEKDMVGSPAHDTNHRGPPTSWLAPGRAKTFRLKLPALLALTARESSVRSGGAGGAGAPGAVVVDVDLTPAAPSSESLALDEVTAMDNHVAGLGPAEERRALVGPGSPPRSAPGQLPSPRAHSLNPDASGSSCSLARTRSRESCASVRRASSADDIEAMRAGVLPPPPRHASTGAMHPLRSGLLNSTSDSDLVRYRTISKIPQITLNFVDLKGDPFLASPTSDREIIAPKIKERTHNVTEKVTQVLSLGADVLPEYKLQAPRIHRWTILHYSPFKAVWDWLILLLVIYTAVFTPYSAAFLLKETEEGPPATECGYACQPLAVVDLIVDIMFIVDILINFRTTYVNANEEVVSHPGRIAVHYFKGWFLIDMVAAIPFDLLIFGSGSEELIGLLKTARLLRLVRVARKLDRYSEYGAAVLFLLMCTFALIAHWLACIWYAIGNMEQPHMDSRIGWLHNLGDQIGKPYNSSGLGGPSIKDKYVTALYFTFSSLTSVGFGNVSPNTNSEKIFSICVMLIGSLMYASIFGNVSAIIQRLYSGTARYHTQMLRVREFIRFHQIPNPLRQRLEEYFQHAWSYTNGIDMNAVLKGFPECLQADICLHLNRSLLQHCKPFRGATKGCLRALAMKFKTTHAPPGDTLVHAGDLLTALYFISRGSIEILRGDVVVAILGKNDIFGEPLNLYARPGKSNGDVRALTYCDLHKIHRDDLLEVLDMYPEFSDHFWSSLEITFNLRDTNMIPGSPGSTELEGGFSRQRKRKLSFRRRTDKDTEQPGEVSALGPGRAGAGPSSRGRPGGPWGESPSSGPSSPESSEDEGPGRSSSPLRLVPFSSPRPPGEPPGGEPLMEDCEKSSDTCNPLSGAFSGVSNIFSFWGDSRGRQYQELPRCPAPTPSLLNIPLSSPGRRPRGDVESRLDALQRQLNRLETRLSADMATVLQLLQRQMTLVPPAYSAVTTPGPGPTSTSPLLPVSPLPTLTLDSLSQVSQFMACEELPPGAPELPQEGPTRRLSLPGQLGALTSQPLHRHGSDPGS
Sequence of Human P-gp (P08183 whole entry): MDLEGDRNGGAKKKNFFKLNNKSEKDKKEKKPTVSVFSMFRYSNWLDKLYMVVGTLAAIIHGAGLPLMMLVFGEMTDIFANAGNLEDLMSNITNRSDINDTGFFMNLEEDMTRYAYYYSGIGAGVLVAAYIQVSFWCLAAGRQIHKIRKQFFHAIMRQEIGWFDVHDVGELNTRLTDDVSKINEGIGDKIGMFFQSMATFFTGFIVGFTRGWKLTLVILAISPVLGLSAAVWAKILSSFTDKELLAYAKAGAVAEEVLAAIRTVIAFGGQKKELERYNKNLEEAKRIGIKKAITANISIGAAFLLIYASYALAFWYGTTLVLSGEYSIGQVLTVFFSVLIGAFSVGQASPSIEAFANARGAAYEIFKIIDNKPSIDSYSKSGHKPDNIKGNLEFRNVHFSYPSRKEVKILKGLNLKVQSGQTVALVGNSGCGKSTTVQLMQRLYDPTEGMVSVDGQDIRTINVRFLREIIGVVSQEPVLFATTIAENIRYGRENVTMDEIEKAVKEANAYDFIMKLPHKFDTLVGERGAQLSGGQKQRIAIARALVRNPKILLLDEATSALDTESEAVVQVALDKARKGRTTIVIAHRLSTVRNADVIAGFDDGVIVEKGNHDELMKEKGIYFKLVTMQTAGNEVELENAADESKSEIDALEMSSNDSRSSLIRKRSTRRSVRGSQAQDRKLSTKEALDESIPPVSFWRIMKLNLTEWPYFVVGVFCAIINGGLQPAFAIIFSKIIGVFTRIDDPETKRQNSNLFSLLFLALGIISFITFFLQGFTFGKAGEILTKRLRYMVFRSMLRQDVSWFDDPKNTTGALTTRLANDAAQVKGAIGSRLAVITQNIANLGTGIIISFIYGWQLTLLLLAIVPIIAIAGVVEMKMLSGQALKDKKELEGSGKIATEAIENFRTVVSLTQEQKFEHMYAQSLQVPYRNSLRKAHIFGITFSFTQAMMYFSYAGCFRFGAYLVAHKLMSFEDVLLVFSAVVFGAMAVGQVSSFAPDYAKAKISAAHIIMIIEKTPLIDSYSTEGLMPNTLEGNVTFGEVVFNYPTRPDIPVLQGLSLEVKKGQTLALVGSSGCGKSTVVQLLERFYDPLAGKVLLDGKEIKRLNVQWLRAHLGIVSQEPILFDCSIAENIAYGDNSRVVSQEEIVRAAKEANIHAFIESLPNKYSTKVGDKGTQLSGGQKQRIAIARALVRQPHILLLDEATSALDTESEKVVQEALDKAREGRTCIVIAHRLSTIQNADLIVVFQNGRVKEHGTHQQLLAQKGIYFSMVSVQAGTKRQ
Sequence of Mouse P-gp (P21447 whole entry): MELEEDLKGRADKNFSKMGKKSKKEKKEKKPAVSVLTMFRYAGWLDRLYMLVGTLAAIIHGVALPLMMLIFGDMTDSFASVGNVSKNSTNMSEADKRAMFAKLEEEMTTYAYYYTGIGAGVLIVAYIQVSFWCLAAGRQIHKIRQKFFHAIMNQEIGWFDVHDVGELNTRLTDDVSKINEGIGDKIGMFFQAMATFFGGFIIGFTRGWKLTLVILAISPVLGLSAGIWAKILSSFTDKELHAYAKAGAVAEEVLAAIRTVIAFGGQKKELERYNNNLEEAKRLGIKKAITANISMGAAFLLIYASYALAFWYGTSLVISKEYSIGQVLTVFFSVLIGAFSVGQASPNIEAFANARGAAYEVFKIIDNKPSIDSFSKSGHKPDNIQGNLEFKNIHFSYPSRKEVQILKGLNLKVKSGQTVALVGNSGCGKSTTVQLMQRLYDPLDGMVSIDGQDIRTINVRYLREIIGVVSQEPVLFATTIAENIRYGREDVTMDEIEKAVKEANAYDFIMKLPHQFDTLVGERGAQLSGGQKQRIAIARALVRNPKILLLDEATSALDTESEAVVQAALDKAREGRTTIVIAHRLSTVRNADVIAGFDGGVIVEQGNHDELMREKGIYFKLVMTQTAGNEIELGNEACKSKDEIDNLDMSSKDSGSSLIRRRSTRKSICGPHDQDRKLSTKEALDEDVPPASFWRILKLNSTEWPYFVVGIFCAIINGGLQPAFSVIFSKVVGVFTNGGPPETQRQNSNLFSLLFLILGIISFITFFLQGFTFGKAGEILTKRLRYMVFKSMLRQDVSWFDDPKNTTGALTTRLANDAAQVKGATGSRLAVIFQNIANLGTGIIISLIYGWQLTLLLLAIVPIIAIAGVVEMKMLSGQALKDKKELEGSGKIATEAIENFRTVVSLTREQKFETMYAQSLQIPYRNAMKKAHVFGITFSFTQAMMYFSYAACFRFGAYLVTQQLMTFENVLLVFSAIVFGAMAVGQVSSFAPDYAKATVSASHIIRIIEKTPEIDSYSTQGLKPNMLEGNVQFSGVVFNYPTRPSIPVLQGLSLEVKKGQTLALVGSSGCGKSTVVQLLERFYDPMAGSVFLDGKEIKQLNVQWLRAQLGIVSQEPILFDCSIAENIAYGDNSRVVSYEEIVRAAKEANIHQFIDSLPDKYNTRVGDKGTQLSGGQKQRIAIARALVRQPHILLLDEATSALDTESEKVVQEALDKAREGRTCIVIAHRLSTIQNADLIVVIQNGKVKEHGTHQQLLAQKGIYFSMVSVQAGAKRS

Compound: Cc1cc(C#N)cnc1C(=O)Nc1ccc(F)c([C@@]2(C)N=C(N)O[C@H](C(F)(F)F)[C@@H]2F)n1 [Example 1, N-(6-((4R,5R,6S)-2-amino-5-fluoro-4-methyl-6-(trifluoromethyl)-5,6-dihydro-4H-1,3-oxazin-4-yl)-5-fluoropyridin-2-yl)-5-cyano-3-methylpicolinamide]
- improvement of the hERG safety margin versus comparator 6 (hERG channel; at approximately 80% reduction of Aβ40 in rat CSF): 17 fold
- IC20 (hERG channel; human, hERG patchliner assay): 2340 nM
- Mouse P-gp ER (Mouse P-gp): 3.5
- Brain Aβ-lowering 3 mg/kg ([1]; single p.o. dose 3 mg/kg): 58%
- Brain Aβ-lowering 10 mg/kg ([1]; single p.o. dose 10 mg/kg): 92%
- CSF Aβ-lowering 1 mg/kg at 4 h (CSF Aβ40): 80%
- CSF Aβ-lowering 1 mg/kg at 4 h (CSF Aβ40; listed as example 1): 80%
- Human P-gp ER (Human P-gp): 1.7
- improvement of BACE2/BACE1 selectivity compared to comparators 4 and 5 (BACE2): 3 fold
- BACE2/BACE1 IC50 ratio (BACE2): 2.0
- BACE2/BACE1 IC50 ratio (BACE2; listed as example 1): 2
